{"source": "patent US5648349A", "about": "“PLA2 inhibitors” (Monsanto Company, priority 1995, dated 1997)", "origin": "cited, not measured here", "test_system": "rat neonatal myocytes", "conditions": "rat neonatal myocytes; Chien et al 1985 (cited); cited from earlier work"}
{"smiles": "O=C(O)CI", "note": "[iodoacetate]", "values": [{"measurement": "levels of ATP, release of arachidonic acid and morphological alterations of the myocytes", "result": "lowers the levels of ATP which results in the release of arachidonic acid and morphological alterations of the myocytes"}]}
